According to ChEMBL document CHEMBL3885881, “DrugMatrix”:

Experiments:
Rattus norvegicus [1] = species on record: Rattus norvegicus; assay: DrugMatrix - Regimen: Daily Repeat; format: toxicity, organism-based, Sprague-Dawley; set-up: regimen Daily Repeat, gender Male, age 6-8 weeks; settings: in vivo, po, 500 mg/kg, route oral GAVAGE, dose level High, vehicle .5 % CMC
Rattus norvegicus [2] = species on record: Rattus norvegicus; format: toxicity, organism-based, Sprague-Dawley; settings: in vivo, po, 500 mg/kg, 24 h, route oral GAVAGE, dose level High, time 1 day, vehicle .5 % CMC
Description: DrugMatrix - Regimen: Single

[3] = […], tissue Plasma, time 14 day

For `Clc1ccccc1` [CHLOROBENZENE], the “URIC ACID” value (Rattus norvegicus [1]; 120 h, tissue Plasma, time 5 day) was 1.8 mg/dL, the “ABSOLUTE BASOPHIL” value (Rattus norvegicus [1]; […], tissue Blood, time 14 day) was 0 CELLS/uL and the “ABSOLUTE EOSINOPHIL” value (Rattus norvegicus [1]; […], tissue Blood, time 14 day) was 209.6 CELLS/uL. For the same compound, the “ABSOLUTE LYMPHOCYTE” value (Rattus norvegicus [1]; […], tissue Blood, time 14 day) was 11694.6 CELLS/uL, the “ABSOLUTE MONOCYTE” value (Rattus norvegicus [1]; […], tissue Blood, time 14 day) was 390 CELLS/uL and the “ABSOLUTE SEGMENTED NEUTROPHIL” value (Rattus norvegicus [1]; […], tissue Blood, time 14 day) was 1365.8 CELLS/uL. For the same compound, the BASOPHIL (Rattus norvegicus [1]; […], tissue Blood, time 14 day) was 0%, the EOSINOPHIL (Rattus norvegicus [1]; […], tissue Blood, time 14 day) was 1.4% and the “ERYTHROCYTE COUNT” value (Rattus norvegicus [1]; […], tissue Blood, time 14 day) was 6.07 x10E6/uL. The HEMATOCRIT (Rattus norvegicus [1]; […], tissue Blood, time 14 day) was 35.18%, the HEMOGLOBIN (Rattus norvegicus [1]; […], tissue Blood, time 14 day) was 13 G/DL and the “LEUKOCYTE COUNT” value (Rattus norvegicus [1]; […], tissue Blood, time 14 day) was 13.86 x10E3/uL. The LYMPHOCYTE (Rattus norvegicus [1]; […], tissue Blood, time 14 day) was 85.2%, the “MEAN CORPUSCULAR HEMOGLOBIN” value (Rattus norvegicus [1]; […], tissue Blood, time 14 day) was 21.48 pg and the “MEAN CORPUSCULAR HEMOGLOBIN CONCENTRATION” value (Rattus norvegicus [1]; […], tissue Blood, time 14 day) was 37 G/DL. The “MEAN CORPUSCULAR VOLUME” value (Rattus norvegicus [1]; […], tissue Blood, time 14 day) was 58.06 fL, the MONOCYTE (Rattus norvegicus [1]; […], tissue Blood, time 14 day) was 3% and the NEUTROPHIL (Rattus norvegicus [1]; […], tissue Blood, time 14 day) was 10.4%. For the same compound, the “NUCLEATED RED BLOOD CELLS” value (Rattus norvegicus [1]; […], tissue Blood, time 14 day) was 0 /100WBC, the “PLATELET COUNT” value (Rattus norvegicus [1]; […], tissue Blood, time 14 day) was 916.8 x10E3/uL and the “ALANINE AMINOTRANSFERASE” value (Rattus norvegicus [1]; [3]) was 59 u/L. For the same compound, the ALBUMIN (Rattus norvegicus [1]; [3]) was 4.22 G/DL, the “ALKALINE PHOSPHATASE” value (Rattus norvegicus [1]; [3]) was 464.4 u/L and the “ASPARTATE AMINOTRANSFERASE” value (Rattus norvegicus [1]; [3]) was 88.8 u/L. For the same compound, the “BLOOD UREA NITROGEN” value (Rattus norvegicus [1]; [3]) was 16 mg/dL, the “CARBON DIOXIDE” value (Rattus norvegicus [1]; [3]) was 28.4 mmol/L and the CHLORIDE (Rattus norvegicus [1]; [3]) was 102.2 MEQ/L. For the same compound, the CHOLESTEROL (Rattus norvegicus [1]; [3]) was 70.2 mg/dL, the CREATININE (Rattus norvegicus [1]; [3]) was 0.16 mg/dL and the GLUCOSE (Rattus norvegicus [1]; [3]) was 130.8 mg/dL. The “LACTATE DEHYDROGENASE” value (Rattus norvegicus [1]; [3]) was 283.8 u/L, the LIPASE (Rattus norvegicus [1]; [3]) was 10.2 u/L and the PHOSPHORUS (Rattus norvegicus [1]; [3]) was 11.26 mg/dL. For the same compound, the POTASSIUM (Rattus norvegicus [1]; [3]) was 6.64 MEQ/L, the SODIUM (Rattus norvegicus [1]; [3]) was 147.56 MEQ/L and the “TOTAL BILIRUBIN” value (Rattus norvegicus [1]; [3]) was 0.28 mg/dL. For the same compound, the “TOTAL PROTEIN” value (Rattus norvegicus [1]; [3]) was 6.16 G/DL, the “URIC ACID” value (Rattus norvegicus [1]; [3]) was 1.56 mg/dL and the “ABSOLUTE EOSINOPHIL” value (Rattus norvegicus [2]; tissue Blood) was 0 CELLS/uL. For the same compound, the “ABSOLUTE LYMPHOCYTE” value (Rattus norvegicus [2]; tissue Blood) was 9295.67 CELLS/uL, the “ABSOLUTE MONOCYTE” value (Rattus norvegicus [2]; tissue Blood) was 616 CELLS/uL and the “ABSOLUTE SEGMENTED NEUTROPHIL” value (Rattus norvegicus [2]; tissue Blood) was 1621.67 CELLS/uL. The BASOPHIL (Rattus norvegicus [2]; tissue Blood) was 0%, the EOSINOPHIL (Rattus norvegicus [2]; tissue Blood) was 0% and the “ERYTHROCYTE COUNT” value (Rattus norvegicus [2]; tissue Blood) was 6.3 x10E6/uL. For the same compound, the HEMATOCRIT (Rattus norvegicus [2]; tissue Blood) was 39.37%, the HEMOGLOBIN (Rattus norvegicus [2]; tissue Blood) was 14.03 G/DL and the “LEUKOCYTE COUNT” value (Rattus norvegicus [2]; tissue Blood) was 11.53 x10E3/uL. For the same compound, the LYMPHOCYTE (Rattus norvegicus [2]; tissue Blood) was 80.67%, the “MEAN CORPUSCULAR HEMOGLOBIN” value (Rattus norvegicus [2]; tissue Blood) was 22.3 pg and the “MEAN CORPUSCULAR HEMOGLOBIN CONCENTRATION” value (Rattus norvegicus [2]; tissue Blood) was 35.67 G/DL. The “MEAN CORPUSCULAR VOLUME” value (Rattus norvegicus [2]; tissue Blood) was 62.53 fL, the MONOCYTE (Rattus norvegicus [2]; tissue Blood) was 5.33% and the NEUTROPHIL (Rattus norvegicus [2]; tissue Blood) was 14%. The “NUCLEATED RED BLOOD CELLS” value (Rattus norvegicus [2]; tissue Blood) was 0 /100WBC, the “PLATELET COUNT” value (Rattus norvegicus [2]; tissue Blood) was 1230.33 x10E3/uL and the “ALANINE AMINOTRANSFERASE” value (Rattus norvegicus [2]; tissue Plasma) was 176 u/L. For the same compound, the ALBUMIN (Rattus norvegicus [2]; tissue Plasma) was 4.43 G/DL, the “ALKALINE PHOSPHATASE” value (Rattus norvegicus [2]; tissue Plasma) was 416.33 u/L and the “ASPARTATE AMINOTRANSFERASE” value (Rattus norvegicus [2]; tissue Plasma) was 280 u/L. For the same compound, the “BLOOD UREA NITROGEN” value (Rattus norvegicus [2]; tissue Plasma) was 20 mg/dL, the “CARBON DIOXIDE” value (Rattus norvegicus [2]; tissue Plasma) was 28.67 mmol/L and the CHLORIDE (Rattus norvegicus [2]; tissue Plasma) was 99.33 MEQ/L. The CHOLESTEROL (Rattus norvegicus [2]; tissue Plasma) was 69.67 mg/dL, the CREATININE (Rattus norvegicus [2]; tissue Plasma) was 0.23 mg/dL and the GLUCOSE (Rattus norvegicus [2]; tissue Plasma) was 154.33 mg/dL. For the same compound, the “LACTATE DEHYDROGENASE” value (Rattus norvegicus [2]; tissue Plasma) was 419.67 u/L, the LIPASE (Rattus norvegicus [2]; tissue Plasma) was 10.67 u/L and the PHOSPHORUS (Rattus norvegicus [2]; tissue Plasma) was 12.9 mg/dL. For the same compound, the POTASSIUM (Rattus norvegicus [2]; tissue Plasma) was 5.56 MEQ/L, the SODIUM (Rattus norvegicus [2]; tissue Plasma) was 146.57 MEQ/L and the “TOTAL BILIRUBIN” value (Rattus norvegicus [2]; tissue Plasma) was 0.23 mg/dL. For the same compound, the “TOTAL PROTEIN” value (Rattus norvegicus [2]; tissue Plasma) was 6.53 G/DL and the “URIC ACID” value (Rattus norvegicus [2]; tissue Plasma) was 1.4 mg/dL.
